In ChEMBL document CHEMBL5465560, “Selectivity Literature for EUbOPEN Chemogenomic Library” (2024):
Values belong to the compound of their own block, whether it stands above or below them.

Legend:
[1] = molecular target: T1, Ankyrin repeat and protein kinase domain-containing protein 1 (Homo sapiens) (UniProt Q8NFD2); assay: Selectivity interaction (KinomeScan (DiscoverX)) EUB0000607a ANKK1; details: at 10 µM
T1 sequence (whole entry): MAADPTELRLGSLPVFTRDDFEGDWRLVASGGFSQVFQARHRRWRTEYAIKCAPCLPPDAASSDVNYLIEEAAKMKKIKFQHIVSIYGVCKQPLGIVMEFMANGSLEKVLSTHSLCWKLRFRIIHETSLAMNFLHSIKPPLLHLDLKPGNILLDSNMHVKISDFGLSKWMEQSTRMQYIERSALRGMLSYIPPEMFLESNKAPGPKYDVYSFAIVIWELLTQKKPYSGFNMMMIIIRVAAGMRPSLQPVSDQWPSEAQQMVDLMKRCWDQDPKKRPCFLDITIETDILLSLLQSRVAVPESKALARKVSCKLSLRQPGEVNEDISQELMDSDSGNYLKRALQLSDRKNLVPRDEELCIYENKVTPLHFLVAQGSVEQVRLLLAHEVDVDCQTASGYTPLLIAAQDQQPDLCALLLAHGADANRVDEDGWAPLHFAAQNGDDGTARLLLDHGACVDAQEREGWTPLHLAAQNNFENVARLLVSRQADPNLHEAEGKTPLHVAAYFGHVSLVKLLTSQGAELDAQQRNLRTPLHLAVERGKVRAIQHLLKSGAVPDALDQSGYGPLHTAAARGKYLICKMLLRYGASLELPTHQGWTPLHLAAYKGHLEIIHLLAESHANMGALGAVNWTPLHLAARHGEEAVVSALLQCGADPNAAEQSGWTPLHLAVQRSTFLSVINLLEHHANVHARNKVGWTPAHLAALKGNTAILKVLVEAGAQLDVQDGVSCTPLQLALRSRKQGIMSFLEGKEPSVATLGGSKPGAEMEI

[2] = molecular target: T2, Lymphokine-activated killer T-cell-originated protein kinase (Homo sapiens) (UniProt Q96KB5); assay: Selectivity interaction (Kinase panel (DSF assay)) EUB0001558a PBK
T2 sequence (whole entry): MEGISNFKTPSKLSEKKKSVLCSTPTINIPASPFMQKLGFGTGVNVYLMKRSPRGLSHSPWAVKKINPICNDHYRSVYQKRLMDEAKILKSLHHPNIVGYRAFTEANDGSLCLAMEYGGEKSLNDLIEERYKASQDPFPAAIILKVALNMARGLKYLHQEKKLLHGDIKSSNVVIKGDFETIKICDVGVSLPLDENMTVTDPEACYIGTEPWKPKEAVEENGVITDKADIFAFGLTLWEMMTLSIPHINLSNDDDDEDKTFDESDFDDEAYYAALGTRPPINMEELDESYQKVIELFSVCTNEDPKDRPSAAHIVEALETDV

[3] = molecular target: T3, Tyrosine-protein kinase JAK3 (Homo sapiens) (UniProt P52333); assay: Selectivity interaction (KinomeScan (DiscoverX)) EUB0000595a JAK3; details: at 10 µM
T3 sequence (whole entry): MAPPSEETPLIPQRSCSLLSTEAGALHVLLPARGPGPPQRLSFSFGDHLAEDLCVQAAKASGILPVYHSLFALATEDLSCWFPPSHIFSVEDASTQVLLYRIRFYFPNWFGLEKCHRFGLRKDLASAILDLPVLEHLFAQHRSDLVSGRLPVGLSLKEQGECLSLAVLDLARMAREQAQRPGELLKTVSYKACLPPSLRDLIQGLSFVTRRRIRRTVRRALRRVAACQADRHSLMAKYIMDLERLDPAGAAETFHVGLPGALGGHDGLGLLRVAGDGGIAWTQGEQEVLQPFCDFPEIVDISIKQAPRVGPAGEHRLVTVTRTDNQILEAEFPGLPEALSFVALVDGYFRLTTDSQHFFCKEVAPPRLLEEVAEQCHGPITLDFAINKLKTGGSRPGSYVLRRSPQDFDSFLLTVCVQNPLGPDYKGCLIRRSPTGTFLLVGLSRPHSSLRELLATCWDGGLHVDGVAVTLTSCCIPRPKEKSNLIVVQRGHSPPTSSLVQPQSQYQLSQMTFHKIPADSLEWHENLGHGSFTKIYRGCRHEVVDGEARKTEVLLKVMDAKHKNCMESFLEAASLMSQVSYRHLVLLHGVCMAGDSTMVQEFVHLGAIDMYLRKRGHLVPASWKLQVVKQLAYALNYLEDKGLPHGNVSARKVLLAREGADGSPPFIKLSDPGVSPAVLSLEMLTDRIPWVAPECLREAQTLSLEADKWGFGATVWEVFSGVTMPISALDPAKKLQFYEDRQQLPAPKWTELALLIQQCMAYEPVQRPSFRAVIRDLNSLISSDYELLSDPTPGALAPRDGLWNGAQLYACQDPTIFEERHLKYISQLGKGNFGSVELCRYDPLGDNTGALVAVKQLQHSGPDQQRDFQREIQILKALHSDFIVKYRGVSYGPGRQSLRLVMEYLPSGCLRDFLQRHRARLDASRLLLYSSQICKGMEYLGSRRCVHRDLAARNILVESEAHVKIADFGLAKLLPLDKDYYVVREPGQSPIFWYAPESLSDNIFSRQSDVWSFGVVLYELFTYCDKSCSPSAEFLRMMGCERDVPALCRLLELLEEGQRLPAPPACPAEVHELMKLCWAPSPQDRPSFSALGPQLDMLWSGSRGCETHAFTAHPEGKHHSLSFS

[4] = molecular target: Myosin light chain kinase, smooth muscle (Homo sapiens, UniProt Q15746); assay: Selectivity interaction (KinomeScan (DiscoverX)) EUB0000229b MYLK; details: at 10 µM
[5] = molecular target: T4, Rhodopsin kinase GRK7 (Homo sapiens) (UniProt Q8WTQ7); assay: Selectivity interaction (KinomeScan (DiscoverX)) EUB0000092b GRK7; details: at 10 µM
T4 sequence (whole entry): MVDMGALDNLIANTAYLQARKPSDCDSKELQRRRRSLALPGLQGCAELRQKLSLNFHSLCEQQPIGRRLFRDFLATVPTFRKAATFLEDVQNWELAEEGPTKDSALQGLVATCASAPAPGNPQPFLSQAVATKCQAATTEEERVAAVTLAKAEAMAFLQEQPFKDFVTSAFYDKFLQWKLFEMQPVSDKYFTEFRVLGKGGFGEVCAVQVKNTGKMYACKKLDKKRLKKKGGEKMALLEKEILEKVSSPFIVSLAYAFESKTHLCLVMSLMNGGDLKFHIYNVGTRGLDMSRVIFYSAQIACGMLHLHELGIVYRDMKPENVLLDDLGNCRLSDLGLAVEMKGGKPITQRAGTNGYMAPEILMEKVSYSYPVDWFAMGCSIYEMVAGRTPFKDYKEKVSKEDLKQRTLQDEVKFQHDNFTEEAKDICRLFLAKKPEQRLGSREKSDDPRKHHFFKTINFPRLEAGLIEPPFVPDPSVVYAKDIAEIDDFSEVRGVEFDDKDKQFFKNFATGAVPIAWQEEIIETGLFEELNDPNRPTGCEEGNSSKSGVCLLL

[6] = molecular target: Activin receptor type-2B (Homo sapiens) (UniProt Q13705); assay: Selectivity interaction (LanthaScreen Eu Kinase Binding Assay) EUB0001632a ACVR2B; details: at 10 µM
[7] = molecular target: Protein kinase C alpha type (Homo sapiens, UniProt P17252); assay: Selectivity interaction (Kinase panel (Z-LYTE Assay)) EUB0001632a PRKCA; details: at 10 µM

Sequence of Myosin light chain kinase, smooth muscle (Q15746 whole entry): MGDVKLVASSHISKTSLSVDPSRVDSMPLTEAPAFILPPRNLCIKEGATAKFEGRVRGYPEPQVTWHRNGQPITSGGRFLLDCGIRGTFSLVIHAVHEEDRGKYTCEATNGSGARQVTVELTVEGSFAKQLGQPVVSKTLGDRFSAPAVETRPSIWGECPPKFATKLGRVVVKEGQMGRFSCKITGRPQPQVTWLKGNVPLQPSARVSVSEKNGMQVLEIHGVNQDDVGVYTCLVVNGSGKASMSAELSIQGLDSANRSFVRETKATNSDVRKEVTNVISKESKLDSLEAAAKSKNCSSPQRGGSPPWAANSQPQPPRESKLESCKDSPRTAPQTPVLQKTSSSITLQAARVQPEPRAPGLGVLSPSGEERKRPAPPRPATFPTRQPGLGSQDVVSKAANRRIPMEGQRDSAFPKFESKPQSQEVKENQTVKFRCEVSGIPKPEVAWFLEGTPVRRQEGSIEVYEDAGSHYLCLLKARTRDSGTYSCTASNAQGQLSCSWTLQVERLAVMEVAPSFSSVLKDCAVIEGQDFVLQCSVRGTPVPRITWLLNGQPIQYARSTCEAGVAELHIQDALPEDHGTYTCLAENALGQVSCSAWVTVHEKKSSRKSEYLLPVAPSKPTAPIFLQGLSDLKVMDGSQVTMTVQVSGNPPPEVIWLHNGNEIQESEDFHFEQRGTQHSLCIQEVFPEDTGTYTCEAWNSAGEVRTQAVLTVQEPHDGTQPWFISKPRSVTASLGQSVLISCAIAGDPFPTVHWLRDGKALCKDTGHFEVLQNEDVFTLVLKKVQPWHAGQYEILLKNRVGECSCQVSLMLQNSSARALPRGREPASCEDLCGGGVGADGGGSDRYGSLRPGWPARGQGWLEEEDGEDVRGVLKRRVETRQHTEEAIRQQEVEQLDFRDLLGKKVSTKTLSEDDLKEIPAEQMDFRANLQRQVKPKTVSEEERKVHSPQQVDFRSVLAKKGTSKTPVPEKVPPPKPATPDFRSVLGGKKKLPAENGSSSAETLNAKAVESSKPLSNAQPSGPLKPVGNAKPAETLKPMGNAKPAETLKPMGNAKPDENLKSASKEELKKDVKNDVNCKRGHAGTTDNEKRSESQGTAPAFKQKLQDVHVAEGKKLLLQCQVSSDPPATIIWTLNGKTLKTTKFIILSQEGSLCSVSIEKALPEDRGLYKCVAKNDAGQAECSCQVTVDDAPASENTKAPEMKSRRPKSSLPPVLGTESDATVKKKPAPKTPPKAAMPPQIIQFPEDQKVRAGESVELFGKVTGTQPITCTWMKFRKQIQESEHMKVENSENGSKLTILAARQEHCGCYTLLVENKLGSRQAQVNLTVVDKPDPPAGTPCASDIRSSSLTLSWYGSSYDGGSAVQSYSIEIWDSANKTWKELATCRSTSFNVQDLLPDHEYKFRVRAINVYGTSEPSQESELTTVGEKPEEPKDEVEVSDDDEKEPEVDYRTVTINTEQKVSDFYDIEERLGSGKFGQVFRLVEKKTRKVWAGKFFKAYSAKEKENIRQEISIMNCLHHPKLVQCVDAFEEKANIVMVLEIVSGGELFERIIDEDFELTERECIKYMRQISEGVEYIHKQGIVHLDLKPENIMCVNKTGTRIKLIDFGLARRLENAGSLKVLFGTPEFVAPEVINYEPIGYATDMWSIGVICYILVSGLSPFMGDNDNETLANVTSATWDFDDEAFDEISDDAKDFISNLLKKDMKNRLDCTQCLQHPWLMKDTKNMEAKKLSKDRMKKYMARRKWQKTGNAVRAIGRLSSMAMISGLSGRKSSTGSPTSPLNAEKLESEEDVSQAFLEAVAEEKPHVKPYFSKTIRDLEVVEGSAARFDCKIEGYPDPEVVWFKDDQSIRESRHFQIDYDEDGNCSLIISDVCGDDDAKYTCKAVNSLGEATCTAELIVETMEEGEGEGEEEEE
Sequence of Activin receptor type-2B (Homo sapiens) (Q13705 whole entry): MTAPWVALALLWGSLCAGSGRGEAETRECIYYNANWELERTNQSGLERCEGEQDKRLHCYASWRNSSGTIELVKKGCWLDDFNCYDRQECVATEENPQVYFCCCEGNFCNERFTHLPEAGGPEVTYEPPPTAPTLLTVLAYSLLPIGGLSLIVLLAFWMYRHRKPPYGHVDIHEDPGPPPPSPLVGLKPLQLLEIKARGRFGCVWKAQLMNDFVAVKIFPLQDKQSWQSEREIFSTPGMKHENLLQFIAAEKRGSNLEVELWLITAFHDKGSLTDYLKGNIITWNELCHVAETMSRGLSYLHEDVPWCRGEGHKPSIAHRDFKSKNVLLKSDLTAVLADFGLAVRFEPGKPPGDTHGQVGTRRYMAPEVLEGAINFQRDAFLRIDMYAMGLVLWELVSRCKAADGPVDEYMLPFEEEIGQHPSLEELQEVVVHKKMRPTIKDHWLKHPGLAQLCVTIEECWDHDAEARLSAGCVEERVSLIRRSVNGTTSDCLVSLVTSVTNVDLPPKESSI

SMILES: CNC(=O)Nc1ccc(-c2nc(N3CC4CCC(C3)O4)c3cnn(C4CCC5(CC4)OCCO5)c3n2)cc1
% of control [1]: 77%

SMILES: CC(C)(O)[C@H](F)CN1Cc2cc(NC(=O)c3cnn4cccnc34)c(N3CCOCC3)cc2C1=O
dTM [2]: -1.2 K

SMILES: COCC(=O)NC/C=C/c1ccc2ncnc(Nc3ccc(Oc4ccc(C)nc4)c(C)c3)c2c1 [CP-724714]
% of control [3]: 100%

SMILES: COc1cc(N(C)c2ccnc3ccc(C(F)(F)F)cc23)cc(OC)c1OC
% binding [4]: 92%

SMILES: CCC(=O)N1CCN(c2ccc(-n3c(=O)ccc4cnc5ccc(-c6cnc7ccccc7c6)cc5c43)cc2C(F)(F)F)CC1
% of control [5]: 100%

% of inhibition [6]: -21.2%
% of control [7]: 1.16%
SMILES: Cn1cc(-n2cnc3c(NCc4nc5cc(Cl)c(Cl)cc5[nH]4)nc(N4CCOCC4)nc32)cn1
